The supplement of paper PMC10307832

Key:
Assay in all cases: relative viability (nuclei count vs DMSO), 5 days (fraction); higher = more cells survive
[1] = compound: C1/C(=C\C2=CC=CS2)/C(=O)/C(=C/C3=CC=CS3)/C1 + Nc1nc2[nH]cc(CCc3ccc(C(=O)N[C@@H](CCC(=O)O)C(=O)O)cc3)c2c(=O)[nH]1 [Pemetrexed] (partner 0.2 µM)
In short: (§1)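 Cells from lung cancer lines were seeded into 1536-well plates and, one day later, dosed by pin tool. Treatments were either a single drug or a fixed dose of an anchor drug with five library-drug doses (not always all listed) in √10 steps. After 5 days, nuclei were stained in a one-step fixation (final 0.05% Triton X-100, 1% formaldehyde, 1 ug/ml Hoechst) and counted on 4× images, and relative viability is the treated-to-vehicle nuclei ratio, as the median of duplicate plates.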

[2] = compound: C1=CC(=CC=C1C2=CC(=C(S2)NC(=O)N)C(=O)N)F [TPCA-1] + COc1cc2c(Oc3ccc(NC(=O)C4(C(=O)Nc5ccc(F)cc5)CC4)cc3F)ccnc2cc1OCCCN1CCOCC1 [Foretinib] (partner 0.25 µM)
In short: as §1

[3] = compound: C1=CC(=CC=C1C2=CC(=C(S2)NC(=O)N)C(=O)N)F [TPCA-1] + CS(=O)(=O)N1CCN(Cc2cc3nc(-c4cccc5[nH]ncc45)nc(N4CCOCC4)c3s2)CC1 [Pictilisib] (partner 1 µM)
In short: as §1

[4] = compound: C[C@]12O[C@H](C[C@]1(O)CO)n1c3ccccc3c3c4c(c5c6ccccc6n2c5c31)CNC4=O [Lestaurtinib] + Cc1nc(NC(=O)N2CCC[C@H]2C(N)=O)sc1-c1ccnc(C(C)(C)C(F)(F)F)c1 [Alpelisib] (partner 2 µM)
In short: as §1

NCI-H520
relative viability ([1]; first compound 0.2 µM): 0.644 | relative viability ([1]; first compound 0.6325 µM): 0.623 | relative viability ([1]; first compound 2 µM): 0.727 | relative viability ([1]; first compound 20 µM): 0.65 | relative viability ([2]; first compound 0.04 µM): 0.768 | relative viability ([2]; first compound 0.1265 µM): 0.816 | relative viability ([2]; first compound 0.4 µM): 0.753 | relative viability ([2]; first compound 1.265 µM): 0.676 | relative viability ([2]; first compound 4 µM): 0.742 | relative viability ([3]; first compound 0.04 µM): 0.351 | relative viability ([3]; first compound 0.1265 µM): 0.242 | relative viability ([3]; first compound 0.4 µM): 0.307 | relative viability ([3]; first compound 1.265 µM): 0.319 | relative viability ([3]; first compound 4 µM): 0.319 | relative viability ([4]; first compound 0.005 µM): 1.05 | relative viability ([4]; first compound 0.01581 µM): 0.993 | relative viability ([4]; first compound 0.05 µM): 0.764 | relative viability ([4]; first compound 0.1581 µM): 0.481 | relative viability ([4]; first compound 0.5 µM): 0.274

NCI-H596
relative viability ([1]; first compound 0.2 µM): 0.5 | relative viability ([1]; first compound 0.6325 µM): 0.477 | relative viability ([1]; first compound 2 µM): 0.527 | relative viability ([1]; first compound 6.325 µM): 0.526 | relative viability ([1]; first compound 20 µM): 0.505 | relative viability ([2]; first compound 0.04 µM): 0.953 | relative viability ([2]; first compound 0.1265 µM): 0.811 | relative viability ([2]; first compound 0.4 µM): 0.855 | relative viability ([2]; first compound 1.265 µM): 0.98 | relative viability ([2]; first compound 4 µM): 0.937 | relative viability ([3]; first compound 0.04 µM): 0.402 | relative viability ([3]; first compound 0.1265 µM): 0.353 | relative viability ([3]; first compound 0.4 µM): 0.196 | relative viability ([3]; first compound 1.265 µM): 0.388 | relative viability ([3]; first compound 4 µM): 0.387 | relative viability ([4]; first compound 0.005 µM): 0.409 | relative viability ([4]; first compound 0.01581 µM): 0.484 | relative viability ([4]; first compound 0.05 µM): 0.464 | relative viability ([4]; first compound 0.1581 µM): 0.624 | relative viability ([4]; first compound 0.5 µM): 0.432

NCI-H647
relative viability ([1]; first compound 0.2 µM): 0.19 | relative viability ([1]; first compound 0.6325 µM): 0.158 | relative viability ([1]; first compound 2 µM): 0.204 | relative viability ([1]; first compound 6.325 µM): 0.158 | relative viability ([1]; first compound 20 µM): 0.213 | relative viability ([2]; first compound 0.04 µM): 1.2 | relative viability ([2]; first compound 0.1265 µM): 1.14 | relative viability ([2]; first compound 0.4 µM): 1.11 | relative viability ([2]; first compound 1.265 µM): 1.16 | relative viability ([2]; first compound 4 µM): 0.782 | relative viability ([3]; first compound 0.04 µM): 0.494 | relative viability ([3]; first compound 0.1265 µM): 0.283 | relative viability ([3]; first compound 0.4 µM): 0.42 | relative viability ([3]; first compound 1.265 µM): 0.236 | relative viability ([3]; first compound 4 µM): 0.217 | relative viability ([4]; first compound 0.005 µM): 0.972 | relative viability ([4]; first compound 0.01581 µM): 0.87 | relative viability ([4]; first compound 0.05 µM): 0.267 | relative viability ([4]; first compound 0.1581 µM): 0.231 | relative viability ([4]; first compound 0.5 µM): 0.14

NCI-H650
relative viability ([1]; first compound 0.2 µM): 0.813 | relative viability ([1]; first compound 0.6325 µM): 1.02 | relative viability ([1]; first compound 2 µM): 0.948 | relative viability ([1]; first compound 6.325 µM): 0.941 | relative viability ([1]; first compound 20 µM): 0.858 | relative viability ([2]; first compound 0.04 µM): 1.01 | relative viability ([2]; first compound 0.1265 µM): 0.947 | relative viability ([2]; first compound 0.4 µM): 1.03 | relative viability ([2]; first compound 1.265 µM): 0.729 | relative viability ([2]; first compound 4 µM): 0.858 | relative viability ([3]; first compound 0.04 µM): 0.928 | relative viability ([3]; first compound 0.1265 µM): 0.864 | relative viability ([3]; first compound 0.4 µM): 1.03 | relative viability ([3]; first compound 1.265 µM): 0.538 | relative viability ([3]; first compound 4 µM): 0.787 | relative viability ([4]; first compound 0.005 µM): 1.24 | relative viability ([4]; first compound 0.01581 µM): 1.04 | relative viability ([4]; first compound 0.05 µM): 0.748 | relative viability ([4]; first compound 0.1581 µM): 0.49 | relative viability ([4]; first compound 0.5 µM): 0.429

NCI-H661
relative viability ([1]; first compound 0.2 µM): 0.914 | relative viability ([1]; first compound 0.6325 µM): 1.01 | relative viability ([1]; first compound 2 µM): 0.949 | relative viability ([1]; first compound 6.325 µM): 0.806 | relative viability ([1]; first compound 20 µM): 0.959 | relative viability ([2]; first compound 0.04 µM): 1.08 | relative viability ([2]; first compound 0.1265 µM): 1.03 | relative viability ([2]; first compound 0.4 µM): 1.06 | relative viability ([2]; first compound 1.265 µM): 0.96 | relative viability ([2]; first compound 4 µM): 0.888 | relative viability ([3]; first compound 0.04 µM): 0.467 | relative viability ([3]; first compound 0.1265 µM): 0.325 | relative viability ([3]; first compound 0.4 µM): 0.452 | relative viability ([3]; first compound 1.265 µM): 0.347 | relative viability ([3]; first compound 4 µM): 0.321 | relative viability ([4]; first compound 0.005 µM): 0.618 | relative viability ([4]; first compound 0.01581 µM): 0.953 | relative viability ([4]; first compound 0.05 µM): 0.495 | relative viability ([4]; first compound 0.1581 µM): 0.477 | relative viability ([4]; first compound 0.5 µM): 0.406

NCI-H838
relative viability ([1]; first compound 0.2 µM): 0.249 | relative viability ([1]; first compound 0.6325 µM): 0.256 | relative viability ([1]; first compound 2 µM): 0.261 | relative viability ([1]; first compound 6.325 µM): 0.212 | relative viability ([1]; first compound 20 µM): 0.242 | relative viability ([2]; first compound 0.04 µM): 1.06 | relative viability ([2]; first compound 0.1265 µM): 0.99 | relative viability ([2]; first compound 0.4 µM): 0.918 | relative viability ([2]; first compound 1.265 µM): 0.843 | relative viability ([2]; first compound 4 µM): 0.769 | relative viability ([3]; first compound 0.04 µM): 0.547 | relative viability ([3]; first compound 0.1265 µM): 0.429 | relative viability ([3]; first compound 0.4 µM): 0.452 | relative viability ([3]; first compound 1.265 µM): 0.325 | relative viability ([3]; first compound 4 µM): 0.387 | relative viability ([4]; first compound 0.005 µM): 1.06 | relative viability ([4]; first compound 0.01581 µM): 1.05 | relative viability ([4]; first compound 0.05 µM): 0.9 | relative viability ([4]; first compound 0.1581 µM): 0.576 | relative viability ([4]; first compound 0.5 µM): 0.183

NCI-H1355
relative viability ([1]; first compound 0.2 µM): 1.06 | relative viability ([1]; first compound 0.6325 µM): 0.922 | relative viability ([1]; first compound 2 µM): 1 | relative viability ([1]; first compound 6.325 µM): 0.96 | relative viability ([1]; first compound 20 µM): 0.971 | relative viability ([2]; first compound 0.04 µM): 0.991 | relative viability ([2]; first compound 0.1265 µM): 0.837 | relative viability ([2]; first compound 0.4 µM): 0.977 | relative viability ([2]; first compound 1.265 µM): 0.932 | relative viability ([2]; first compound 4 µM): 0.705 | relative viability ([3]; first compound 0.04 µM): 0.487 | relative viability ([3]; first compound 0.1265 µM): 0.325 | relative viability ([3]; first compound 0.4 µM): 0.427 | relative viability ([3]; first compound 1.265 µM): 0.227 | relative viability ([3]; first compound 4 µM): 0.224 | relative viability ([4]; first compound 0.005 µM): 0.849 | relative viability ([4]; first compound 0.01581 µM): 0.885 | relative viability ([4]; first compound 0.05 µM): 0.682 | relative viability ([4]; first compound 0.1581 µM): 0.392 | relative viability ([4]; first compound 0.5 µM): 0.303

NCI-H1395
relative viability ([1]; first compound 0.2 µM): 0.889 | relative viability ([1]; first compound 0.6325 µM): 0.912 | relative viability ([1]; first compound 2 µM): 1.08 | relative viability ([1]; first compound 6.325 µM): 0.819 | relative viability ([1]; first compound 20 µM): 0.971 | relative viability ([2]; first compound 0.04 µM): 1.05 | relative viability ([2]; first compound 0.1265 µM): 1.01 | relative viability ([2]; first compound 0.4 µM): 0.975 | relative viability ([2]; first compound 1.265 µM): 0.96 | relative viability ([2]; first compound 4 µM): 0.823 | relative viability ([3]; first compound 0.04 µM): 0.694 | relative viability ([3]; first compound 0.1265 µM): 0.66 | relative viability ([3]; first compound 0.4 µM): 0.68 | relative viability ([3]; first compound 1.265 µM): 0.505 | relative viability ([3]; first compound 4 µM): 0.607 | relative viability ([4]; first compound 0.005 µM): 1.15 | relative viability ([4]; first compound 0.01581 µM): 1.14 | relative viability ([4]; first compound 0.05 µM): 0.795 | relative viability ([4]; first compound 0.1581 µM): 0.813 | relative viability ([4]; first compound 0.5 µM): 0.483
